Residues, ends and D or L forms follow the SMILES beside them.
What follows are molecules tested on P-selectin (assay: Inhibition of binding of human neutrophils to P-selectin (neutrophil adhesion to purified P-selectin immobilized on plastic wells)). Settings: P-selectin isolated from human platelets, plated at 5 micrograms/mL, myeloperoxidase readout, peptides tested 1.0 mM to 0.001 mM.
Format: cell-based
Description: Peptides can be screened for their ability to inhibit adhesion to cells, for example, neutrophil adhesion to purified P-selectin immobilized on plastic wells, using the assay described by Geng, et al., Nature 343, 757-760 (1990).
Human neutrophils are isolated from heparinized whole blood by density gradient centrifugation on Mono-Poly resolving media, Flow Laboratories. Neutrophil suspensions are greater than 98% pure and greater than 95% viable by trypan blue exclusion. For adhesion assays, neutrophils are suspended at a concentration of 2×10^6 cells/mL in Hanks' balanced salt solution containing 1.26 mM Ca^2+ and 0.81 mM Mg^2+ (HBSS, Gibco) with 0.05 mg/mL human serum albumin (HBSS/HSA). Adhesion assays are conducted in triplicate in 96-well microtiter plates, Corning, incubated at 4° C. overnight with 50 microliters of various protein solutions.
P-selectin is isolated from human platelet lysates by immunoaffinity chromatography on antibody S12-Sepharose™ and ion-exchange chromatography on a Mono-Q™ column (FLPC, Pharmacia Fine Chemicals), as follows.
Outdated human platelet packs (100 units) obtained from a blood bank and stored at 4° C. are pooled, adjusted to 5 mM EDTA at pH 7.5, centrifuged at 4,000 rpm for 30 minutes in 1 liter bottles, then washed three times with 1 liter of 0.1M NaCl, 20 mM Tris pH 7.5 (TBS), 5 mM EDTA, 5 mM benzamidine.
The pellets are then resuspended in a minimum amount of wash buffer and made 1 mM in DIFP, then frozen in 50 mL screwtop tubes at -80° C. The frozen platelets are thawed and resuspended in 50 mL TBS, 5 mM benzamidine, 5 mM EDTA pH 7.5, […]. The suspension is frozen and thawed two times in a dry ice-acetone bath using a 600 mL lyophilizing flask, then homogenized in a glass/teflon mortar and pestle and made 1 mM in DIFP. The NaCl concentration is adjusted to 0.5M with a stock solution of 4M NaCl. After stirring the suspension at 4° C., it is centrifuged in polycarbonate tubes at 33,000 rpm for 60 minutes at 4° C. The supernatant (0.5M NaCl wash) is removed and saved; this supernatant contains the soluble form of P-selectin. Care is taken not to remove the top part of the pellet with the supernatant. The pellets are then homogenized in extraction buffer (TBS, 5 mM benzamidine, 5 mM EDTA, pH 7.5, 100 μM leupeptin, 2% Triton X-100). After centrifugation at 19,500 rpm for 25 minutes at 4° C., the supernatant is removed. The extraction procedure is repeated with the pellet and the supernatant is combined with the first supernatant. The combined extracts, which contain the membrane form of P-selectin, are adjusted to 0.5M NaCl.
The soluble fraction (0.5M NaCl wash) and the membrane extract (also adjusted to 0.5M NaCl) are absorbed with separate pools of the monoclonal antibody S12 (directed to P-selectin) previously coupled to Affigel (Biorad) at 5 mg/mL for 2 hours at 4° C. After letting the resins settle, the supernatants are removed. The S12 Affigel containing bound GMP-140 is then loaded into a column and washed overnight at 4° C. with 400 mL of 0.5M NaCl, 20 mM Tris pH 7.5, 0.01% Lubrol PX.
Bound P-selectin is eluted from the S12 Affigel with 100 mL of 80% ethylene glycol, 1 mM MES pH 6.0, 0.01% Lubrol PX. Peak fractions with absorbance at 280 nm are pooled. Eluates are dialyzed against TBS with 0.05% Lubrol, then applied to a Mono Q column (FPLC from Pharmacia). The concentrated protein is step eluted with 2M NaCl, 20 mM Tris pH 7.5 (plus 0.05% Lubrol PX for the membrane fraction). Peak fractions are dialyzed into TBS pH 7.5 (plus 0.05% Lubrol PX for the membrane fraction).
P-selectin is plated at 5 micrograms/mL and the control proteins: human serum albumin (Alb), platelet glycoprotein IIb/IIIa (IIb), von Willebrand factor (vWF), fibrinogen (FIB), thrombomodulin (TM), gelatin (GEL) or human serum (HS), are added at 50 micrograms/mL. […]

Row | SMILES | IC50 [µM]
1 | CC[C@H](C)[C@H](NC(=O)[C@H](Cc1ccc(O)cc1)NC(=O)[C@@H](NC(=O)[C@H](CC(C)C)NC(=O)[C@H](Cc1c[nH]cn1)NC(=O)CNC(=O)[C@H](CCCNC(=N)N)NC(C)=O)C(C)C)C(=O)N[C@@H](CCC(N)=O)C(N)=O [Ac--RGHLVYIQ--NH2, Acetyl-arginyl-glycyl-histidyl-leucyl-valyl-tyrosyl-isoleucyl-glutamine-amide] (Ac-RGHLVYIQ-NH2) | 428
2 | CC(=O)N[C@@H](Cc1ccc(O)cc1)C(=O)N[C@H](C(=O)N[C@@H](CCCCN)C(=O)N[C@@H](CC(C)C)C(=O)N[C@H](C(=O)N[C@@H](Cc1ccccc1)C(=O)N[C@@H](CCC(N)=O)C(=O)N[C@@H](CCC(N)=O)C(N)=O)C(C)C)[C@@H](C)O [Ac--YTKLVFEQ--NH2, Acetyl-tyrosyl-threonyl-lysyl-leucyl-valyl-phenylalanyl-glutaminyl-glutamine-amide] (Ac-YTKLVFQQ-NH2) | 99
3 | CC[C@H](C)[C@H](NC(=O)[C@H](Cc1ccccc1)NC(=O)[C@@H](NC(=O)[C@H](CC(C)C)NC(=O)[C@H](CCCCN)NC(=O)[C@@H](NC(=O)[C@H](Cc1ccc(O)cc1)NC(C)=O)[C@@H](C)O)C(C)C)C(=O)N[C@@H](CCC(N)=O)C(N)=O [Ac--YTKLVFIQ--NH2, Acetyl-tyrosyl-threonyl-lysyl-leucyl-valyl-phenylalanyl-isoleucyl-glutamine-amide] (Ac-YTKLVFIQ-NH2) | 149
4 | CC[C@H](C)[C@H](NC(=O)[C@H](C)NC(=O)[C@@H](NC(=O)[C@H](CCc1ccccc1)NC(=O)[C@H](CCCCN)NC(=O)[C@@H](NC(=O)[C@@H](N)Cc1ccc(O)cc1)[C@@H](C)O)C(C)C)C(=O)N[C@@H](CCC(N)=O)C(N)=O [YTK--(homo-F)--VAIQ--NH2, Tyrosyl-threonyl-lysyl-(homo-phenylalanyl)-valyl-alanyl-isoleucyl-glutamine-amide] (HELM PEPTIDE1{Y.T.K.[O=C([C@H](CCc1ccccc1)N[*:1])[*:2]].V.A.I.Q.[am]}$$$$V2.0) | 52
5 | CC[C@H](C)[C@H](NC(=O)[C@H](C)NC(=O)[C@@H](NC(=O)[C@H](Cc1ccccc1)NC(=O)[C@H](CCSC)NC(=O)[C@@H](NC(=O)[C@@H](N)Cc1ccc(O)cc1)[C@@H](C)O)C(C)C)C(=O)N[C@@H](CCC(N)=O)C(N)=O [YTMFVAIQ--NH2, Tyrosyl-threonyl-methionyl-phenylalanyl-valyl-alanyl-isoleucyl-glutamine-amide] (H-YTMFVAIQ-NH2) | 114
6 | CSCC[C@H](NC(=O)[C@@H](NC(=O)[C@@H](N)Cc1ccc(O)cc1)[C@@H](C)O)C(=O)N[C@@H](CC(C)C)C(=O)N[C@H](C(=O)N[C@@H](C)C(=O)N[C@@H](Cc1ccccc1)C(=O)N[C@@H](CCC(N)=O)C(N)=O)C(C)C [YTMLVAFQ--NH2, Tyrosyl-threonyl-methionyl-leucyl-valyl-alanyl-phenylalanyl-glutamine-amide] (H-YTMLVAFQ-NH2) | 93
7 | CC[C@@H](C)[C@@H](NC(=O)[C@@H](Cc1ccccc1)NC(=O)[C@H](NC(=O)[C@@H](CC(C)C)NC(=O)[C@@H](Cc1c[nH]cn1)NC(=O)CNC(=O)[C@H](N)CCCNC(=N)N)C(C)C)C(=O)N[C@H](CCC(N)=O)C(N)=O [rGhlvfiq--NH2, D-arginyl-glycyl-D-histidyl-D-leucyl-D-valyl-D-phenylalanyl-D-isoleucyl-D-glutamine-amide] (HELM PEPTIDE1{[dR].G.[dH].[dL].[dV].[dF].[dI].[dQ].[am]}$$$$V2.0) | 270

More lines, in order of falling IC50, values ahead:

Row | IC50 [µM] | SMILES
8 | 81 | CC[C@H](C)[C@H](NC(=O)[C@H](Cc1c[nH]cn1)NC(=O)[C@@H](NC(=O)[C@H](CC(C)C)NC(=O)[C@H](CCCCN)NC(=O)[C@@H](NC(=O)[C@H](Cc1ccc(O)cc1)NC(C)=O)[C@@H](C)O)C(C)C)C(=O)N[C@@H](CCC(N)=O)C(N)=O [Ac--YTKLVHIQ--NH2, Acetyl-tyrosyl-threonyl-lysyl-leucyl-valyl-histidyl-isoleucyl-glutamine-amide] (Ac-YTKLVHIQ-NH2)
9 | 64 | CC[C@H](C)[C@H](NC(=O)[C@H](C)NC(=O)[C@@H](NC(=O)[C@H](Cc1ccc(O)cc1)NC(=O)[C@H](CCCCN)NC(=O)[C@@H](NC(=O)[C@@H](N)Cc1ccc(O)cc1)[C@@H](C)O)C(C)C)C(=O)N[C@@H](CCC(N)=O)C(N)=O [YTKYVAIQ--NH2, Tyrosyl-threonyl-lysyl-tyrosyl-valyl-alanyl-isoleucyl-glutamine-amide] (H-YTKYVAIQ-NH2)
10 | 26 | CC[C@H](C)[C@H](NC(=O)[C@@H](CCc1ccccc1)NC(=O)[C@@H](NC(=O)[C@H](CC(C)C)NC(=O)[C@H](CCCCN)NC(=O)[C@@H](NC(=O)[C@H](Cc1ccc(O)cc1)NC(C)=O)[C@@H](C)O)C(C)C)C(=O)N[C@@H](CCC(N)=O)C(N)=O [Ac--YTKLV--(D-homo-F)--IQ--NH2, Acetyl-tyrosyl-threonyl-lysyl-leucyl-valyl-(D-homo-phenylalanyl)-isoleucyl- glutamine-amide] (HELM PEPTIDE1{[ac].Y.T.K.L.V.[O=C([C@@H](CCc1ccccc1)N[*:1])[*:2]].I.Q.[am]}$$$$V2.0)
11 | 22 | CC[C@H](C)[C@H](NC(=O)[C@H](Cc1ccccc1)NC(=O)[C@@H](NC(=O)[C@H](CC(C)C)NC(=O)[C@H](CCCCN)NC(=O)[C@@H](NC(=O)[C@@H](N)Cc1ccc(O)cc1)[C@@H](C)O)C(C)C)C(=O)N[C@@H](CCC(N)=O)C(N)=O [YTKLVFIQ--NH2, Tyrosyl-threonyl-lysyl-leucyl-valyl-phenylalanyl-isoleucyl-glutamine-amide] (H-YTKLVFIQ-NH2)
12 | 21 | CC[C@H](C)[C@H](NC(=O)[C@H](C)NC(=O)[C@@H](NC(=O)[C@H](Cc1ccccc1)NC(=O)[C@H](CCCCN)NC(=O)[C@@H](NC(=O)[C@@H](N)Cc1ccc(O)cc1)[C@@H](C)O)C(C)C)C(=O)N[C@@H](CCC(N)=O)C(N)=O [YTKFVAIQ--NH2, Tyrosyl-threonyl-lysyl-phenylalanyl-valyl-alanyl-isoleucyl-glutamine-amide] (H-YTKFVAIQ-NH2)

— patent US5618785A, “Peptide inhibitors of selectin binding” (Centocor, Inc., priority 1995, dated 1997)
